Source: US20190359609A1, “BICYCLIC OGA INHIBITOR COMPOUNDS” (Janssen Pharmaceutica NV, priority 2016, published 2019)
Where a name gives a salt, the structure may show the parent alone. Read-outs that look alike come from different tables or passages of the source.

Legend:
[1] = target: T1, OGA (Homo sapiens, UniProt O60502); test: OGA cellular assay: ICC detection of O-GlcNAcylated proteins in HEK293 cells inducible for P301L mutant human Tau; type: cell-based; settings: 6 hours incubation; for EC50: read-out: Cellular hOGA, pEC50 (converted)
T1 construct: endogenous in cells; host or cells: HEK293 cells inducible for P301L mutant human Tau (2N4R)
T1 sequence (O60502 1-916): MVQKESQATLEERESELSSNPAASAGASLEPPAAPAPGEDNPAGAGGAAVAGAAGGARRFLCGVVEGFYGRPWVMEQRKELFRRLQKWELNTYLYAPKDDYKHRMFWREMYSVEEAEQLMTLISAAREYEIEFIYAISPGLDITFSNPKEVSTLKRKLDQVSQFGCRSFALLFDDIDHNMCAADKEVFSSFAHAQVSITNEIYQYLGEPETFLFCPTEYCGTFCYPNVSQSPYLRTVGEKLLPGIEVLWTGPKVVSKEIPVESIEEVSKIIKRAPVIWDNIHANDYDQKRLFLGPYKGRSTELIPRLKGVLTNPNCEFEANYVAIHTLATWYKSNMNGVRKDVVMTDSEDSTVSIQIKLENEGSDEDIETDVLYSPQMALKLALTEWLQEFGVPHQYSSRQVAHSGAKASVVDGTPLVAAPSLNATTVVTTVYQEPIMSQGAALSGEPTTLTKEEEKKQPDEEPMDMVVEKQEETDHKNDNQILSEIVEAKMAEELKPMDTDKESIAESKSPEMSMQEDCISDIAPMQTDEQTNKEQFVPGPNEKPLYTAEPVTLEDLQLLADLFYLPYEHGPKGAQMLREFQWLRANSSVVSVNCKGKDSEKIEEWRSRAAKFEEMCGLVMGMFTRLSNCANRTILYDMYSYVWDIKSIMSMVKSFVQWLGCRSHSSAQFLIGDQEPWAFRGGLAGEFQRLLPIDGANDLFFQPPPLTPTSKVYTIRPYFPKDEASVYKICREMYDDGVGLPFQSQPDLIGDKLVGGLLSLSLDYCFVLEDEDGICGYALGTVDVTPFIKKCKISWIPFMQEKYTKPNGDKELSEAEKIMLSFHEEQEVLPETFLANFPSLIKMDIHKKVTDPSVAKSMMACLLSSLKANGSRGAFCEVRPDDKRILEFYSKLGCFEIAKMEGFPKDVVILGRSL
Procedure: HEK293 cells inducible for P301L mutant human Tau (isoform 2N4R) were established at Janssen. Thiamet-G was used for both plate validation (high control) and as reference compound (reference EC50 assay validation). OGA inhibition is evaluated through the immunocytochemical (ICC) detection of O-GlcNAcylated proteins by the use of a monoclonal antibody (CTD110.6; Cell Signaling, #9875) detecting O-GlcNAcylated residues as previously described (Dorfmueller et al. 2010 Chemistry & biology, 17:1250).
Inhibition of OGA will result in an increase of 0-GlcNAcylated protein levels resulting in an increased signal in the experiment. Cell nuclei are stained with Hoechst to give a cell culture quality control and a rough estimate of immediate compounds toxicity, if any. ICC pictures are imaged with a Perkin Elmer Opera Phenix plate microscope and quantified with the provided software Perkin Elmer Harmony 4.1.
Cells were propagated in DMEM high Glucose (Sigma, #D5796) following standard procedures. 2 days before the cell assay cells are split, counted and seeded in Poly-D-Lysine (PDL) coated 96-wells (Greiner, #655946) plate at a cell density of 12,000 cells per cm^2 (4,000 cells per well) in 100 μl of Assay Medium (Low Glucose medium is used to reduce basal levels of GlcNAcylation) (Park et al. 2014 The Journal of biological chemistry 289:13519). At the day of compound test medium from assay plates was removed and replenished with 90 μl of fresh Assay Medium. 10 μl of compounds at a 10fold final concentration were added to the wells. Plates were centrifuged shortly before incubation in the cell incubator for 6 hours. DMSO concentration was set to 0.2%. Medium is discarded by applying vacuum. For staining of cells medium was removed and cells washed once with 100 μl D-PBS (Sigma, #D8537). From next step onwards unless other stated assay volume was always 50 μl and incubation was performed without agitation and at room temperature. Cells were fixed in 50 μl of a 4% paraformaldehyde (PFA, Alpha aesar, #043368) PBS solution for 15 minutes at room temperature. […] Before analysis samples were washed 2 times manually for 5 minutes in ICC base buffer.
Imaging is performed using Perkin Elmer Phenix Opera using a water 20× objective and recording 9 fields per well. Intensity readout at 488 nm is used as a measure of O-GlcNAcylation level of total proteins in wells. To assess potential toxicity of compounds nuclei were counted using the Hoechst staining. IC50-values are calculated using parametric non-linear regression model fitting. As a maximum inhibition Thiamet G at a 200 uM concentration is present on each plate. In addition, a concentration response of Thiamet G is calculated on each plate.

[2] = target: T2, recombinant human Meningioma Expressed Antigen 5 (MGEA5), also referred to as O-GlcNAcase (OGA) (Homo sapiens, UniProt O60502); test: OGA biochemical assay: inhibition of FM-GlcNAc hydrolysis, fluorescence (protocol A 10 nM OGA, 1 h; protocol B 2 nM OGA, 6 h)
T2 construct: Full length OGA enzyme was purchased at OriGene (cat # TP322411); purchased OriGene TP322411
T2 sequence (O60502 1-916): T1 sequence (O60502 1-916)
Source text: The assay is based on the inhibition of the hydrolysis of fluorescein mono-B-D-N-Acetyl-Glucosamine (FM-GlcNAc) (Mariappa et al. 2015, Biochem J 470:255) by the recombinant human Meningioma Expressed Antigen 5 (MGEA5), also referred to as 0-GlcNAcase (OGA). The hydrolysis FM-GlcNAc (Marker Gene technologies, cat # M1485) results in the formation of β-D-N-glucosamineacetate and fluorescein. The fluorescence of the latter can be measured at excitation wavelength 485 nm and emission wavelength 538 nm. An increase in enzyme activity results in an increase in fluorescence signal. Full length OGA enzyme was purchased at OriGene (cat # TP322411). The enzyme was stored in 25 mM Tris.HCl, pH 7.3, 100 mM glycine, 10% glycerol at −20° C. Thiamet G and GlcNAcStatin were tested as reference compounds (Yuzwa et al. 2008 Nature Chemical Biology 4:483; Yuzwa et al. 2012 Nature Chemical Biology 8:393). The assay was performed in 200 mM Citrate/phosphate buffer supplemented with 0.005% Tween-20. 35.6 g Na2HPO4 2 H2O (Sigma, # C0759) were dissolved in 1 L water to obtain a 200 mM solution. 19.2 g citric acid (Merck, #1.06580) was dissolved in 1 L water to obtain a 100 mM solution. pH of the sodiumphosphate solution was adjusted with the citric acid solution to 7.2. The buffer to stop the reaction consists of a 500 mM Carbonate buffer, pH 11.0. 734 mg FM-GlcNAc were dissolved in 5.48 mL DMSO to obtain a 250 mM solution and was stored at −20° C. OGA was used at a 10 nM (protocol A) or 2 nM (protocol B) concentration and FM-GlcNAc at a 100 uM final concentration. Dilutions were prepared in assay buffer.
50 nl of a compound dissolved in DMSO was dispensed on Black Proxiplate™ 384 Plus Assay plates (Perkin Elmer, #6008269) and 3 μl fl-OGA enzyme mix added subsequently. Plates were pre-incubated for 60 min at room temperature and then 2 μl FM-GlcNAc substrate mix added. […] Plates were briefly centrifuged for 1 min at 1000 rpm and incubate at room temperature for 1 h (10 nM OGA, protocol A) or 6 h (2 nM OGA, protocol B). To stop the reaction 5 μl STOP buffer were added and plates centrifuge again 1 min at 1000 rpm. Fluorescence was quantified in the Thermo Scientific Fluoroskan Ascent or the PerkinElmer EnVision with excitation wavelength 485 nm and emission wavelength 538 nm.
For analysis a best-fit curve is fitted by a minimum sum of squares method. From this an IC50 value and Hill coefficient was obtained. High control (no inhibitor) and low control (saturating concentrations of standard inhibitor) were used to define the minimum and maximum values.

[3] = Enzymatic protocol A (10 nM OGA, 1 h), read-out: Enzymatic Emax (%)
[4] = Enzymatic protocol A (10 nM OGA, 1 h), read-out: Enzymatic hOGA, pIC50 (converted)
[5] = Enzymatic protocol B (2 nM OGA, 6 h), read-out: Enzymatic Emax (%)
[6] = Enzymatic protocol B (2 nM OGA, 6 h), read-out: Enzymatic hOGA, pIC50 (converted)

melting point [°C] | Emax [1] [%] | EC50 [1] [µM] | Emax [2, 3] [%] | IC50 [2, 4] [µM] | Emax [2, 5] [%] | IC50 [2, 6] [µM] | Emax ([2]; comparative table, protocol not given, read-out: Emax (OGA inhibitory activity, comparison with 1,4-disubstituted piperidine comparator)) [%] | IC50 ([2]; comparative table, protocol not given, read-out: pIC50 (OGA inhibitory activity, comparison with 1,4-disubstituted piperidine comparator) (converted)) [µM] | OGA inhibitory activity compared with comparator ([2]; greater than the corresponding 1,4-disubstituted piperidine compound (comparator)) | Enzymatic Emax (%) ([2]; Enzymatic protocol A (10 nM OGA, 1 h)) | Enzymatic Emax (%) ([2]; Enzymatic protocol B (2 nM OGA, 6 h)) | SMILES
178.2 |  |  |  |  |  |  |  |  |  |  |  | c1cnc2cc(C3CCCN(Cc4ccc5c(c4)OCCO5)C3)[nH]c2c1 (stereo not drawn) (as salt: HCl) [Compound 39]
 | 114 | 0.0209 | 101 | 0.0417 | 102 | 0.0224 |  |  |  |  |  | CC(=O)Nc1ncc(CN2CC[C@@H](C)[C@H](c3cc4ncccc4[nH]3)C2)s1 (racemic) [Compound 22]
 | 107 | 0.417 |  |  | 98.6 | 0.055 |  |  |  |  |  | CC(c1ccc2c(c1)OCCO2)N1CCCC(c2cc3ncccc3[nH]2)C1 (racemic) [Compound 33]
 | 44.3 | > 10 | 99.7 | 0.178 | 99.4 | 0.186 |  |  |  |  |  | CC(=O)Nc1ncc(S(=O)(=O)N2CCCC(c3cc4ncccc4[nH]3)C2)s1 (single isomer, unassigned) [Compound 4]
 | 66.6 | 3.63 | 92.3 | 1.66 | 79.1 | 2.69 |  |  |  |  |  | CC(=O)Nc1ncc(CN2CCCC(c3cc4ncccc4[nH]3)C2)s1 (single isomer, unassigned) [Compound 6]
 | 114 | 0.0214 | 104 | 0.0182 | 100 | 0.0251 | 104 | 0.0182 | ~1 order of magnitude |  |  | CC(=O)Nc1ncc(CN2CCC[C@H](c3cc4ncccc4[nH]3)C2)s1 (single isomer, unassigned) [Compound 7]
223.94 |  |  |  | 24.5 |  |  |  |  |  | 55.6 |  | CC(=O)Nc1ncc(CN2CCCC(c3nc4ncccc4[nH]3)C2)s1 (single isomer, unassigned) [Compound 18]
 | 95.8 | 0.195 |  |  |  | 0.0269 |  |  |  |  | 100.4 | CC(c1ccc2c(c1)OCO2)N1CCCC(c2cc3ncccc3[nH]2)C1 (single isomer, unassigned) [Compound 31]
 | 113 | 0.148 | 101 | 0.112 | 100 | 0.105 |  |  |  |  |  | CC(=O)Nc1ncc(CN2CCCC(c3cc4cccnc4[nH]3)C2)s1 (stereo not drawn) [Compound 8]
235 |  |  | 98 | 0.204 |  |  |  |  |  |  |  | CCC(=O)Nc1ncc(CN2CCCC(c3cc4ncccc4[nH]3)C2)s1 (stereo not drawn) [Compound 9]
 | 103 | 0.0182 |  |  | 100 | 0.0741 |  |  |  |  |  | CC(=O)Nc1ncc(CN2CCCC(c3cc4ccncc4[nH]3)C2)s1 (stereo not drawn) [Compound 11]
 | 120 | 0.0178 |  |  | 124 | 0.0427 |  |  |  |  |  | CC(=O)Nc1ncc(CN2CCCC(c3cc4cnccc4[nH]3)C2)s1 (stereo not drawn) [Compound 12]
 | 95.6 | 2.63 | 98 | 0.155 |  |  |  |  |  |  |  | CC(=O)Nc1ncc(CN2CCCC(c3nc4ncccc4n3C)C2)s1 (stereo not drawn) [Compound 20]
 | 101 | 2.63 | 101 | 0.302 |  |  |  |  |  |  |  | CC(=O)Nc1ncc(CN2CCCC(c3nc4cccnc4n3C)C2)s1 (stereo not drawn) [Compound 21]
 | 98 | 0.00794 |  |  | 99.8 | 0.00214 |  |  |  |  |  | CC(=O)Nc1ncc(CN2CCC(Cc3cc4ncccc4[nH]3)C2)s1 (stereo not drawn) [Compound 24]
 | 121 | 0.00933 |  |  | 102 | 0.00151 |  |  |  |  |  | CC(=O)Nc1ncc(CN2CCC(Cc3cc4ncccc4n3C)C2)s1 (stereo not drawn) [Compound 25]
 | 118 | < 0.00457 |  |  | 101 | 0.0024 |  |  |  |  |  | CC(=O)Nc1ncc(CN2CCCC(Cc3cc4ncccc4n3C)C2)s1 (stereo not drawn) [Compound 26]
 | 90.3 | 3.63 | 98.2 | 0.617 |  |  |  |  |  |  |  | c1cnc2cc(C3CCCN(Cc4ccc5c(c4)OCCO5)C3)[nH]c2c1 (stereo not drawn) [Compound 39]
 | 75.1 | 0.955 |  |  | 102 | 0.0617 |  |  |  |  |  | CC(c1ccc2c(c1)OCCO2)N1CCCC(c2cc3ncccc3n2C)C1 (stereo not drawn) [Compound 40]
187.16 |  |  |  |  | 102 | 0.00269 |  |  |  |  |  | CC(=O)Nc1ncc(CN2CC[C@@H](Cc3cc4ncccc4n3C)C2)s1 [Compound 58]
